Source: PubChem BioAssay (NCI)
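The compound was tested at five concentrations on cells cultured in 96-well plates, with a 48-hour exposure period. At the GI50, growth is halved. TGI marks complete inhibition of growth.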

How the values were obtained:
Assay in all cases: NCI-60 cell line screen, 48 h
UO-31 renal = test system: UO-31 renal
SW-620 colon = test system: SW-620 colon
A549 NSCLC = test system: A549 NSCLC
SN12C renal = test system: SN12C renal
786-0 renal = test system: 786-0 renal
HCT-116 colon = test system: HCT-116 colon
COLO 205 colon = test system: COLO 205 colon
NCI-H522 lung = test system: NCI-H522 lung
HCT-15 colon = test system: HCT-15 colon
DU-145 prostate = test system: DU-145 prostate

Structure (SMILES)	TGI (UO-31 renal)	TGI (SW-620 colon)	TGI (A549 NSCLC)	TGI (SN12C renal)	TGI (786-0 renal)	TGI (HCT-116 colon)	TGI (COLO 205 colon)	TGI (NCI-H522 lung)	TGI (HCT-15 colon)	TGI (DU-145 prostate)	GI50 (SW-620 colon)	GI50 (A549 NSCLC)	GI50 (SN12C renal)	GI50 (HCT-15 colon)	GI50 (786-0 renal)	GI50 (DU-145 prostate)	GI50 (HCT-116 colon)	GI50 (COLO 205 colon)	GI50 (NCI-H522 lung)
CCCCN(CCCC)CCCn1cnc2ncccc2c1=O	> 100 µM	> 100 µM	> 100 µM	> 100 µM	> 100 µM	> 100 µM	> 100 µM	> 100 µM	–	–	–	–	–	–	–	–	–	–	–
COC(=O)/C(=N\NC(N)=O)C(C(=O)C=C(C)C)C(=O)C(=O)Nc1ccc(Cl)c(Cl)c1 (centres undefined)	> 100 µM	> 100 µM	> 100 µM	> 100 µM	> 100 µM	> 100 µM	> 100 µM	> 100 µM	> 100 µM	–	–	–	–	–	–	–	–	–	–
O=C(O)CCC(C(=O)O)N1C(=O)C2C3CCC(C3)C2C1=O (centres undefined)	–	> 100 µM	> 100 µM	> 100 µM	> 100 µM	> 100 µM	> 100 µM	> 100 µM	> 100 µM	> 100 µM	–	–	–	–	–	–	–	–	–
COc1ccc(CCc2cc(OC)c(O)c(OC)c2)cc1	> 100 µM	> 100 µM	> 100 µM	> 100 µM	> 100 µM	> 100 µM	> 100 µM	> 100 µM	–	–	–	–	–	–	–	–	–	–	–
CC(C)C1N2CCCCC2[C@@H]2c3[nH]c4ccccc4c3CCN12 (some centres undefined)	> 100 µM	> 100 µM	> 100 µM	> 100 µM	> 100 µM	> 100 µM	> 100 µM	–	> 100 µM	–	–	–	–	–	–	–	–	–	–
c1ccc2c(NCCCCCCNc3cccc4ccccc34)cccc2c1	> 100 µM	> 100 µM	> 100 µM	> 100 µM	> 100 µM	> 100 µM	> 100 µM	> 100 µM	> 100 µM	–	–	–	–	–	–	–	–	–	–
CCCCCCCC(=O)[O][Hg][CH2]C1COC([CH2][Hg][O]C(=O)CCCCCCC)CO1 (centres undefined)	–	19.5 µM	47.2 µM	30.5 µM	30.4 µM	8.26 µM	14.6 µM	> 100 µM	26.2 µM	32.2 µM	2.91 µM	20.3 µM	15.7 µM	9.54 µM	7.95 µM	18.1 µM	2.29 µM	3.72 µM	4.8 µM
COc1ccc(OC)c(/C=C/c2nc(SCc3ccccc3)n(-c3ccc(Cl)cc3)n2)c1	–	> 100 µM	> 100 µM	> 100 µM	> 100 µM	> 100 µM	> 100 µM	25 µM	> 100 µM	> 100 µM	5.05 µM	6.79 µM	8.1 µM	5.01 µM	7.66 µM	9.9 µM	4.04 µM	14.6 µM	3.39 µM
COc1cc(/C=C2/C(=O)N(C(=O)OCc3ccccc3)C(Cc3cc(OC)c(OC)c(C)c3OC)C(=O)N2Cc2ccccc2)c(OC)c(C)c1OC (centres undefined)	> 100 µM	> 100 µM	> 100 µM	> 100 µM	> 100 µM	> 100 µM	> 100 µM	> 100 µM	–	–	–	–	–	–	–	–	–	–	–
O=c1cc(-c2ccccc2)[nH]c2cc(Cl)ccc12	> 100 µM	16.9 µM	> 100 µM	82.3 µM	12.1 µM	> 100 µM	2.82 µM	0.358 µM	15.8 µM	–	–	–	–	–	–	–	–	–	–
